Experimental data published in paper PMC9154192 (PLoS Biology, 2022).
≈ marks a conversion by molar mass, not a printed value.

Assays:
M. tuberculosis H37Rv = assay: microbe, parasite or virus in culture; type: cell-based, Mycobacterium tuberculosis; conditions: Mycobacterium tuberculosis, H37RV; read-out: MIC
[1] = test system: clinically isolated MDR, XDR, and TDR M. tuberculosis strains; assay: microbe, parasite or virus in culture; type: cell-based; conditions: Mycobacterium tuberculosis
M. abscessus = assay: microbe, parasite or virus in culture; type: cell-based, Mycobacterium abscessus; conditions: Mycobacteroides abscessus
M. arupense = assay: microbe, parasite or virus in culture; type: cell-based, Mycobacterium arupense; conditions: Mycolicibacter arupensis
M. avium = assay: microbe, parasite or virus in culture; type: cell-based; conditions: Mycobacterium avium
M. bolletii = assay: microbe, parasite or virus in culture; type: cell-based, Mycobacterium bolletii; conditions: Mycobacteroides abscessus
M. chitae = assay: microbe, parasite or virus in culture; type: cell-based, Mycobacterium chitae; conditions: Mycolicibacterium chitae
M. colombiense = assay: microbe, parasite or virus in culture; type: cell-based; conditions: Mycobacterium colombiense
M. fortuitum = assay: microbe, parasite or virus in culture; type: cell-based, Mycobacterium fortuitum; conditions: Mycolicibacterium fortuitum
M. gilvum = assay: microbe, parasite or virus in culture; type: cell-based, Mycobacterium gilvum; conditions: Mycolicibacterium gilvum
M. goodie = assay: microbe, parasite or virus in culture; type: cell-based; conditions: Mycobacterium
M. gordonae = assay: microbe, parasite or virus in culture; type: cell-based; conditions: Mycobacterium gordonae
M. heraklionease = assay: microbe, parasite or virus in culture; type: cell-based; conditions: Mycobacterium
M. kansasii = assay: microbe, parasite or virus in culture; type: cell-based; conditions: Mycobacterium kansasii
M. kyorinense = assay: microbe, parasite or virus in culture; type: cell-based; conditions: Mycobacterium kyorinense
M. marinum = assay: microbe, parasite or virus in culture; type: cell-based; conditions: Mycobacterium marinum
M. marseiliense = assay: microbe, parasite or virus in culture; type: cell-based; conditions: Mycobacterium
M. massiliense = assay: microbe, parasite or virus in culture; type: cell-based, Mycobacterium massiliense; conditions: Mycobacteroides abscessus
M. neoaurum = assay: microbe, parasite or virus in culture; type: cell-based, Mycobacterium neoaurum; conditions: Mycolicibacterium neoaurum
M. peregrinum = assay: microbe, parasite or virus in culture; type: cell-based, Mycobacterium peregrinum; conditions: Mycolicibacterium peregrinum
M. phlei = assay: microbe, parasite or virus in culture; type: cell-based, Mycobacterium phlei; conditions: Mycolicibacterium phlei
M. smegmatis = assay: microbe, parasite or virus in culture; type: cell-based, Mycobacterium smegmatis; conditions: Mycolicibacterium smegmatis
M. szulgai = assay: microbe, parasite or virus in culture; type: cell-based; conditions: Mycobacterium szulgai
M. xenopi = assay: microbe, parasite or virus in culture; type: cell-based; conditions: Mycobacterium xenopi
Acinetobacter baumannii = assay: Broth dilution MIC (CLSI); type: cell-based; conditions: read-out: MIC
From the text: (§1) Bacteria (Acinetobacter baumannii NCCP 14782, Citrobacter freundii NCCP 14766, Enterobacter aerogenes NCCP 14761, Escherichia coli NCCP 14762, Escherichia coli O157 NCCP 14541, Klebsiella pneumoniae NCCP 14764, Proteus mirabilis NCCP 14763, Proteus vulgaris NCCP 14765, Pseudomonas aeruginosa NCCP 14781, Salmonella Enteritidis NCCP 14771, Salmonella Paratyphi A NCCP 14759, Salmonella Typhimurium NCCP 16207, Serratia marcescens NCCP 14770, Shigella boydii NCCP 14745, Shigella dysenteriae NCCP 14746, Shigella flexneri NCCP 14744, Shigella sonnei NCCP 14773, Bacillus subtilis NCCP 11101, Corynebacterium diphtheriae NCCP 10353, Staphylococcus aureus MSSA NCCP 14780, Staphylococcus aureus MRSA NCCP 14769, Staphylococcus epidermidis NCCP 14768, Streptococcus pneumoniae NCCP 14774) and fungi (Aspergillus fumigatus NCCP 22454, Candida albicans NCCP 32557, Cryptococcus neoformans NCCP 32559, Microsporum canis NCCP 22454, Rhizopus oryzae NCCP 22458, Saccharomyces cerevisiae NCCP 32558, Trichophyton rubrum NCCP 22456) strains were obtained from the National Culture Collection for Pathogens (NCCP) (Chungbuk, Korea). The MIC of each agent was determined following the Clinical and Laboratory Standards Institute (CLSI).[40]

Aspergillus fumigatus = assay: Broth dilution MIC (CLSI); type: cell-based; conditions: read-out: MIC
From the text: as §1

Bacillus subtilis = assay: Broth dilution MIC (CLSI); type: cell-based; conditions: read-out: MIC
From the text: as §1

Citrobacter freundii = assay: Broth dilution MIC (CLSI); type: cell-based; conditions: read-out: MIC
From the text: as §1

Enterobacter aerogenes = assay: Broth dilution MIC (CLSI); type: cell-based; conditions: Klebsiella aerogenes; Enterobacter aerogenes; read-out: MIC
From the text: as §1

Escherichia coli O157 = assay: Broth dilution MIC (CLSI); type: cell-based; conditions: read-out: MIC
From the text: as §1

Escherichia coli = assay: Broth dilution MIC (CLSI); type: cell-based; conditions: read-out: MIC
From the text: as §1

Klebsiella pneumoniae = assay: Broth dilution MIC (CLSI); type: cell-based; conditions: read-out: MIC
From the text: as §1

Microsporum canis = assay: Broth dilution MIC (CLSI); type: cell-based; conditions: read-out: MIC
From the text: as §1

Proteus vulgaris = assay: Broth dilution MIC (CLSI); type: cell-based; conditions: read-out: MIC
From the text: as §1

Rhizopus oryzae = assay: Broth dilution MIC (CLSI); type: cell-based; conditions: Rhizopus arrhizus; Rhizopus oryzae; read-out: MIC
From the text: as §1

Saccharomyces cerevisiae = assay: Broth dilution MIC (CLSI); type: cell-based; conditions: read-out: MIC
From the text: as §1

Salmonella Enteritidis = assay: Broth dilution MIC (CLSI); type: cell-based; conditions: Salmonella enterica; Salmonella Enteritidis; read-out: MIC
From the text: as §1

Salmonella Paratyphi A = assay: Broth dilution MIC (CLSI); type: cell-based; conditions: Salmonella enterica; Salmonella Paratyphi A; read-out: MIC
From the text: as §1

Shigella dysenteriae = assay: Broth dilution MIC (CLSI); type: cell-based; conditions: read-out: MIC
From the text: as §1

Shigella sonnei = assay: Broth dilution MIC (CLSI); type: cell-based; conditions: read-out: MIC
From the text: as §1

[2] = test system: Staphylococcus aureus, MSSA; assay: Broth dilution MIC (CLSI); type: cell-based; conditions: read-out: MIC
From the text: as §1

Streptococcus pneumoniae = assay: Broth dilution MIC (CLSI); type: cell-based; conditions: read-out: MIC
From the text: as §1

Q: Which results are given for `NNC(=O)c1ccncc1` [INH, isoniazid, reference compound]?
A: MIC (M. tuberculosis H37Rv): 0.4 µg/mL (≈ 2.92 µM); MIC ([1]; TDR-1): 12.5 µg/mL (≈ 91.1 µM); MIC ([1]; TDR-2): 6.3 µg/mL (≈ 45.9 µM); MIC ([1]; TDR-3): 12.5 µg/mL (≈ 91.1 µM); MIC (M. abscessus): > 100 µg/mL; MIC (M. arupense): 50 µg/mL (≈ 365 µM); MIC (M. avium): 25 µg/mL (≈ 182 µM); MIC (M. bolletii): > 100 µg/mL; MIC (M. chitae): 12.5 µg/mL (≈ 91.1 µM); MIC (M. colombiense): 12.5 µg/mL (≈ 91.1 µM); MIC (M. fortuitum): 25 µg/mL (≈ 182 µM); MIC (M. gilvum): 12.5 µg/mL (≈ 91.1 µM); MIC (M. goodie): 25 µg/mL (≈ 182 µM); MIC (M. gordonae): > 100 µg/mL; MIC (M. heraklionease): > 100 µg/mL; MIC (M. kansasii): 0.2 µg/mL (≈ 1.46 µM); MIC (M. kyorinense): 3.1 µg/mL (≈ 22.6 µM); MIC (M. marinum): 25 µg/mL (≈ 182 µM); MIC (M. marseiliense): > 100 µg/mL; MIC (M. massiliense): 12.5 µg/mL (≈ 91.1 µM); MIC (M. neoaurum): 3.1 µg/mL (≈ 22.6 µM); MIC (M. peregrinum): 6.3 µg/mL (≈ 45.9 µM); MIC (M. phlei): > 100 µg/mL; MIC (M. smegmatis): 25 µg/mL (≈ 182 µM); MIC (M. szulgai): 1.6 µg/mL (≈ 11.7 µM); MIC (M. xenopi): 1.6 µg/mL (≈ 11.7 µM); MIC (Acinetobacter baumannii): > 100 µg/mL; MIC (Aspergillus fumigatus): > 100 µg/mL; MIC (Bacillus subtilis): > 100 µg/mL; MIC (Citrobacter freundii): > 100 µg/mL; MIC (Enterobacter aerogenes): > 100 µg/mL; MIC (Escherichia coli O157): > 100 µg/mL; MIC (Escherichia coli): > 100 µg/mL; MIC (Klebsiella pneumoniae): > 100 µg/mL; MIC (Microsporum canis): > 100 µg/mL; MIC (Proteus vulgaris): > 100 µg/mL; MIC (Rhizopus oryzae): > 100 µg/mL; MIC (Saccharomyces cerevisiae): > 100 µg/mL; MIC (Salmonella Enteritidis): > 100 µg/mL; MIC (Salmonella Paratyphi A): > 100 µg/mL; MIC (Shigella dysenteriae): > 100 µg/mL; MIC (Shigella sonnei): > 100 µg/mL; MIC [2]: > 100 µg/mL; MIC (Streptococcus pneumoniae): > 100 µg/mL
